These molecules were tested on HCV 1b genotype (assay: HCV Replicon assay (HCV 1b genotype)). Details: Hepatitis C virus; HCV 1b genotype replicon; Effective 50% inhibitory concentration; read-out: EC50.
Assay type: cell-based
Procedure: An HCV Replicon assay was utilized in the present disclosure, and was prepared, conducted and validated as described in commonly owned PCT/US2006/022197 and in O'Boyle et al., Antimicrob. Agents Chemother., 49(4):1346-1353 (April 2005). Assay methods incorporating luciferase reporters have also been used as described (Apath.com).
HCV-neo replicon cells and replicon cells containing resistance substitutions in the NS5A region were used to test the currently described family of compounds. The compounds were determined to have differing degrees of reduced inhibitory activity on cells containing mutations vs. the corresponding inhibitory potency against wild-type cells. Thus, the compounds of the present disclosure can be effective in inhibiting the function of the HCV NS5A protein and are understood to be as effective in combinations as previously described in application PCT/US2006/022197 and commonly owned WO 04/014852. It should be understood that the compounds of the present disclosure can inhibit multiple genotypes of HCV. […] In one embodiment, compounds of the present disclosure are inhibitory versus 1a, 1b, 2a, 2b, 3a, 4a, and 5a genotypes. EC50 values against HCV 1b are as follows.

Row | SMILES | EC50 [nM]
1 | CC[C@H](NC(=O)OC)C(=O)N1[C@@H]2C[C@@H]2C[C@H]1c1nc(Cl)c(-c2ccc(-c3ccc(-c4[nH]c([C@@H]5C[C@H]6C[C@H]6N5C(=O)[C@@H](NC(=O)OC)C5CCOCC5)nc4Cl)cc3)cc2)[nH]1 [Example V9] | 0.0027
2 | COC(=O)NC(C(=O)N1[C@@H]2C[C@@H]2C[C@H]1c1nc(-c2ccc(-c3ccc(-c4c[nH]c([C@@H]5C[C@H]6C[C@H]6N5C(=O)[C@@H](NC(=O)OC)[C@H]5CCCOC5)n4)cc3)cc2)c(Cl)[nH]1)[C@H]1CCCOC1 (stereo partly shown) [ZY6] | 0.0108

Same assay, conditions: Hepatitis C virus; HCV 1b genotype replicon; range class; read-out: EC50-Range

Row | SMILES | EC50 [nM]
3 | COC(=O)N[C@H](C(=O)N1[C@@H]2C[C@@H]2C[C@H]1c1nc(-c2ccc(-c3ccc4c(ccc5[nH]c([C@@H]6C[C@H]7C[C@H]7N6C(=O)[C@@H](NC(=O)OC)C6CCOCC6)nc54)c3)cc2)c(Cl)[nH]1)C1CCOCC1 [DSTL-2] | 0.01 to 0.1
4 | COC(=O)N[C@H](C(=O)N1[C@@H]2C[C@@H]2C[C@H]1c1nc(-c2ccc(-c3ccc(-c4nc([C@@H]5C[C@H]6C[C@H]6N5C(=O)[C@@H](NC(=O)OC)C5CCOCC5)[nH]c4F)cc3)cc2)c[nH]1)C1CCOCC1 [DSTL-6] | 0.001 to 0.01
5 | COC(=O)N[C@H](C(=O)N1[C@@H]2C[C@@H]2C[C@H]1c1nc(-c2ccc(-c3ccc(-c4nc([C@@H]5C[C@H]6C[C@H]6N5C(=O)[C@@H](NC(=O)OC)C5CCOCC5)[nH]c4F)cc3)cc2)c(F)[nH]1)C1CCOCC1 [DSTL-7] | 0.001 to 0.01
6 | COC(=O)N[C@H](C(=O)N1[C@@H](C)CC[C@H]1c1nc(-c2ccc(-c3ccc(-c4nc([C@@H]5CC[C@H](C)N5C(=O)[C@@H](NC(=O)OC)C5CCOCC5)[nH]c4F)cc3)cc2)c[nH]1)C1CCOCC1 [DSTL-9] | 0.001 to 0.01
7 | COC(=O)N[C@H](C(=O)N1[C@@H](C)CC[C@H]1c1nc(-c2ccc(-c3ccc(-c4nc([C@@H]5CC[C@H](C)N5C(=O)[C@@H](NC(=O)OC)C5CCOCC5)[nH]c4F)cc3)cc2)c(F)[nH]1)C1CCOCC1 [DSTL-10] | 0.001 to 0.01
8 | COC(=O)N[C@H](C(=O)N1C2C[C@@H]2C[C@H]1c1nc(-c2ccc(-c3ccc(-c4nc([C@@H]5CC6C[C@H]6N5C(=O)[C@@H](NC(=O)OC)C5CCOCC5)[nH]c4C#N)cc3)cc2)c[nH]1)C1CCOCC1 (stereo partly shown) [DSTL-12] | 0.01 to 0.1
9 | CC[C@H](NC(=O)OC)C(=O)N1[C@@H]2C[C@@H]2C[C@H]1c1ncc(-c2ccc(-c3ccc(-c4[nH]c([C@@H]5C[C@H]6C[C@H]6N5C(=O)[C@H](CC)NC(=O)OC)nc4Cl)cc3)cc2)[nH]1 [Example V1] | 0.001 to 0.01
10 | CC[C@H](NC(=O)OC)C(=O)N1[C@@H]2C[C@@H]2C[C@H]1c1nc(Cl)c(-c2ccc(-c3ccc(-c4[nH]c([C@@H]5C[C@H]6C[C@H]6N5C(=O)[C@H](CC)NC(=O)OC)nc4Cl)cc3)cc2)[nH]1 [Example V3] | 0.001 to 0.01
11 | CC[C@H](NC(=O)OC)C(=O)N1[C@@H]2C[C@@H]2C[C@H]1c1nc(Cl)c(-c2ccc(-c3ccc(-c4[nH]c([C@@H]5C[C@H]6C[C@H]6N5C(=O)[C@@H](NC(=O)OC)C5CCOCC5)nc4Cl)cc3)cc2)[nH]1 [Example V9] | 0.001 to 0.01
12 | COC(=O)N[C@H](C(=O)N1[C@@H](C)CC[C@H]1c1ncc(-c2ccc(-c3ccc(-c4[nH]c([C@@H]5CC[C@H](C)N5C(=O)[C@@H](NC(=O)OC)C(C)C)nc4Cl)cc3)cc2)[nH]1)C(C)C [GW2] | 0.001 to 0.01
13 | COC(=O)N[C@H](C(=O)N1C[C@@H](C)C[C@H]1c1ncc(-c2ccc(-c3ccc(-c4[nH]c([C@@H]5C[C@H](C)CN5C(=O)[C@@H](NC(=O)OC)C(C)C)nc4Cl)cc3)cc2)[nH]1)C(C)C [GW3] | 0.001 to 0.01
14 | COC(=O)N[C@H](C(=O)N1C[C@@H](C)C[C@H]1c1ncc(-c2ccc(-c3ccc(-c4[nH]c([C@@H]5C[C@H](C)CN5C(=O)[C@@H](NC(=O)OC)C5CCOCC5)nc4Cl)cc3)cc2)[nH]1)C1CCOCC1 [GW4] | 0.01 to 0.1
15 | COC(=O)N[C@H](C(=O)N1C[C@@H](C)C[C@H]1c1nc(Cl)c(-c2ccc(-c3ccc(-c4[nH]c([C@@H]5C[C@H](C)CN5C(=O)[C@@H](NC(=O)OC)C(C)C)nc4Cl)cc3)cc2)[nH]1)C(C)C [GW8] | 0.001 to 0.01
16 | COC(=O)N[C@H](C(=O)N1CCC[C@H]1c1nc(-c2ccc(-c3ccc(-c4nc([C@@H]5CCCN5C(=O)[C@@H](NC(=O)OC)C(C)C)[nH]c4Br)cc3)cc2)c[nH]1)C(C)C [JLR-1] | 0.001 to 0.01
17 | COC(=O)N[C@H](C(=O)N1CCC[C@H]1c1nc(-c2ccc(-c3ccc(-c4nc([C@@H]5CCCN5C(=O)[C@@H](NC(=O)OC)C(C)C)[nH]c4I)cc3)cc2)c[nH]1)C(C)C [JLR-2] | 0.001 to 0.01
18 | COC(=O)N[C@H](C(=O)N1[C@@H](C)CC[C@H]1c1nc(-c2ccc(-c3ccc4c(ccc5[nH]c([C@@H]6CC[C@H](C)N6C(=O)[C@@H](NC(=O)OC)C6CCOCC6)nc54)c3)cc2)c(Cl)[nH]1)C1CCOCC1 [JLR-5] | 0.001 to 0.01
19 | COC(=O)NC(C(=O)N1[C@@H]2C[C@@H]2C[C@H]1c1nc(-c2ccc(-c3ccc(-c4[nH]c([C@@H]5C[C@H]6C[C@H]6N5C(=O)C(NC(=O)OC)[C@H]5C[C@@H](C)O[C@@H](C)C5)nc4Cl)cc3)cc2)c[nH]1)[C@H]1C[C@@H](C)O[C@@H](C)C1 (stereo partly shown) [OL6] | 0.001 to 0.01
20 | COC(=O)N[C@H](C(=O)N1CCC[C@H]1c1ncc(-c2ccc(-c3ccc(-c4[nH]c([C@@H]5CCCN5C(=O)[C@@H](NC(=O)OC)C(C)C)nc4C4CC4)cc3)cc2)[nH]1)C(C)C [OL7] | 0.001 to 0.01
21 | C=CCc1nc([C@@H]2CCCN2C(=O)[C@@H](NC(=O)OC)C(C)C)[nH]c1-c1ccc(-c2ccc(-c3cnc([C@@H]4CCCN4C(=O)[C@@H](NC(=O)OC)C(C)C)[nH]3)cc2)cc1 [OL15] | 0.001 to 0.01
22 | C=CCc1cc([C@@H]2CCCN2C(=O)[C@@H](NC(=O)OC)C2CCOCC2)[nH]c1-c1ccc(-c2ccc(-c3cnc([C@@H]4CCCN4C(=O)[C@@H](NC(=O)OC)C4CCOCC4)[nH]3)cc2)cc1 [OL16] | 0.01 to 0.1
23 | COC(=O)N[C@H](C(=O)N1CCC[C@H]1c1ncc(-c2ccc(-c3ccc(-c4[nH]c([C@@H]5CCCN5C(=O)[C@@H](NC(=O)OC)C(C)C)nc4-c4ccnn4C)cc3)cc2)[nH]1)C(C)C [OL19] | 0.01 to 0.1
24 | COC(=O)N[C@H](C(=O)N1[C@@H]2C[C@@H]2C[C@H]1c1nc(-c2ccc(-c3ccc(-c4nc([C@@H]5C[C@H]6C[C@H]6N5C(=O)[C@@H](NC(=O)OC)[C@@H]5CCCOC5)[nH]c4Cl)cc3)cc2)c(Cl)[nH]1)[C@@H]1CCCOC1 [ZY1, dimethyl(S,1S,1′S)-2,2′-((1R,1′R,3S,3′S,5R,5′R)-3,3′-(4,4′-(biphenyl-4,4′-diyl)bis(5-chloro-1H-imidazole-4,2-diyl))bis(2-azabicyclo[3.1.0]hexane-3,2-diyl))bis(2-oxo-1-((S)-tetrahydro-2H-pyran-3-yl)ethane-2,1-diyl)dicarbamate] | 0.001 to 0.01
25 | COC(=O)N[C@H](C(=O)N1[C@@H]2C[C@@H]2C[C@H]1c1nc(-c2ccc(-c3ccc(-c4nc([C@@H]5C[C@H]6C[C@H]6N5C(=O)[C@@H](NC(=O)OC)[C@H]5CCCOC5)[nH]c4Cl)cc3)cc2)c(Cl)[nH]1)[C@H]1CCCOC1 [ZY2, dimethyl(R,1S,1′S)-2,2′-((1R,1′R,3S,3′S,5R,5′R)-3,3′-(4,4′-(biphenyl-4,4′-diyl)bis(5-chloro-1H-imidazole-4,2-diyl))bis(2-azabicyclo[3.1.0]hexane-3,2-diyl))bis(2-oxo-1-((R)-tetrahydro-2H-pyran-3-yl)ethane-2,1-diyl)dicarbamate] | 0.001 to 0.01
26 | COC(=O)NC(C(=O)N1[C@@H]2C[C@@H]2C[C@H]1c1nc(-c2ccc(-c3ccc(-c4nc([C@@H]5C[C@H]6C[C@H]6N5C(=O)[C@H](NC(=O)OC)[C@H]5CCCOC5)[nH]c4Cl)cc3)cc2)c(Cl)[nH]1)[C@@H]1CCCOC1 (stereo partly drawn) [ZY3, dimethyl(R,1R,1′R)-2,2′-((1R,1′R,3S,3′S,5R,5′R)-3,3′-(4,4′-(biphenyl-4,4′-diyl)bis(5-chloro-1H-imidazole-4,2-diyl))bis(2-azabicyclo[3.1.0]hexane-3,2-diyl))bis(2-oxo-1-((R)-tetrahydro-2H-pyran-3-yl)ethane-2,1-diyl)dicarbamate] | 0.001 to 0.01
27 | COC(=O)N[C@@H](C(=O)N1[C@@H]2C[C@@H]2C[C@H]1c1nc(-c2ccc(-c3ccc(-c4nc([C@@H]5C[C@H]6C[C@H]6N5C(=O)[C@H](NC(=O)OC)[C@@H]5CCCOC5)[nH]c4Cl)cc3)cc2)c(Cl)[nH]1)[C@@H]1CCCOC1 [ZY4, dimethyl(S,1R,1′R)-2,2′-((1R,1′R,3S,3′S,5R,5′R)-3,3′-(4,4′-(biphenyl-4,4′-diyl)bis(5-chloro-1H-imidazole-4,2-diyl))bis(2-azabicyclo[3.1.0]hexane-3,2-diyl))bis(2-oxo-1-((S)-tetrahydro-2H-pyran-3-yl)ethane-2,1-diyl)dicarbamate] | 0.001 to 0.01
28 | COC(=O)N[C@@H](C(=O)N1[C@@H]2C[C@@H]2C[C@H]1c1nc(-c2ccc(-c3ccc(-c4nc([C@@H]5C[C@H]6C[C@H]6N5C(=O)[C@H](NC(=O)OC)[C@@H]5CCCOC5)[nH]c4Cl)cc3)cc2)c[nH]1)[C@H]1CCCOC1 [ZY5] | 0.001 to 0.01
29 | COC(=O)NC(C(=O)N1[C@@H]2C[C@@H]2C[C@H]1c1nc(-c2ccc(-c3ccc(-c4c[nH]c([C@@H]5C[C@H]6C[C@H]6N5C(=O)[C@@H](NC(=O)OC)[C@H]5CCCOC5)n4)cc3)cc2)c(Cl)[nH]1)[C@H]1CCCOC1 (stereo partly shown) [ZY6] | 0.01 to 0.1
30 | COCC[C@H](NC(=O)OC)C(=O)N1[C@@H]2C[C@@H]2C[C@H]1c1nc(-c2ccc(-c3ccc(-c4nc([C@@H]5C[C@H]6C[C@H]6N5C(=O)[C@H](CCOC)NC(=O)OC)[nH]c4Cl)cc3)cc2)c(Cl)[nH]1 [ZY7, dimethyl (2S,2′S)-1,1′-((1R,1′R,3S,3′S,5R,5′R)-3,3′-(4,4′-(biphenyl-4,4′-diyl)bis(5-chloro-1H-imidazole-4,2-diyl))bis(2-azabicyclo[3.1.0]hexane-3,2-diyl))bis(4-methoxy-1-oxobutane-2,1-diyl)dicarbamate] | 0.001 to 0.01
31 | COCC[C@H](NC(=O)OC)C(=O)N1[C@@H]2C[C@@H]2C[C@H]1c1nc(-c2ccc(-c3ccc(-c4nc([C@@H]5C[C@H]6C[C@H]6N5C(=O)[C@H](CCOC)NC(=O)OC)[nH]c4Cl)cc3)cc2)c[nH]1 [ZY8] | 0.001 to 0.01

— US8377980B2, “Hepatitis C virus inhibitors” (Bristol-Myers Squibb Company, priority 2009, dated 2013)
